# Entries after “also recorded” stand apart in the source; their conditions may differ.
# How the values were obtained:
# sperm = sperm motility in vitro; type: cell-based, mouse; settings: sperm of WT and mutant mice, clofibric acid in media (2 mM elsewhere in the source)
# Excerpt: We observed spermatozoa after clofibrate treatment represent cells that were able to escape the inhibition of clofibric acid, most likely due to very fast clearance and fluctuating levels in rodents. This allows some tubular cells to complete the developmental cycle. Therefore, we measured sperm concentration as an indicator of efficiency of the pharmacological block and to be able to determine the concentration that results in effective sterility. We analyzed testicular morphology, sperm production, sperm motility and sperm function in in vitro fertilization after feeding these animals with the lipid lowering drug clofibrate. We tested an acute inhibition of sperm motility and function in vitro by incubating sperm from the engineered mice (mGus−/−, mT1R3−/−, hmT1R3+) in solutions containing clofibric acid or other T1R3 inhibitors. The concentration used was similar to the one used in human treatment with fibrates (˜0.03 g/kg weight, for 3 weeks). We tested sperm motility and function in vitro of the Gα-gustducin KO mice (missing only the Gα-gustducin gene (mGus−/−)) after blocking T1R3 receptors with the rodent specific inhibitor gurmarin (3 mg/ml).
# We evaluated the residual sperm that was produced by the line 7c mice in more detail. […] From all the above results, the combined lack of T1R3 and α-gustducin exerted its effect primarily at the level of developing spermatocytes in testis.
# human T1R3 receptor = target: T1, human T1R3 receptor (Homo sapiens, UniProt Q7RTX0); settings: cited from earlier work
# T1 construct: expressed in transfected cells
# T1 sequence (Q7RTX0 21-852): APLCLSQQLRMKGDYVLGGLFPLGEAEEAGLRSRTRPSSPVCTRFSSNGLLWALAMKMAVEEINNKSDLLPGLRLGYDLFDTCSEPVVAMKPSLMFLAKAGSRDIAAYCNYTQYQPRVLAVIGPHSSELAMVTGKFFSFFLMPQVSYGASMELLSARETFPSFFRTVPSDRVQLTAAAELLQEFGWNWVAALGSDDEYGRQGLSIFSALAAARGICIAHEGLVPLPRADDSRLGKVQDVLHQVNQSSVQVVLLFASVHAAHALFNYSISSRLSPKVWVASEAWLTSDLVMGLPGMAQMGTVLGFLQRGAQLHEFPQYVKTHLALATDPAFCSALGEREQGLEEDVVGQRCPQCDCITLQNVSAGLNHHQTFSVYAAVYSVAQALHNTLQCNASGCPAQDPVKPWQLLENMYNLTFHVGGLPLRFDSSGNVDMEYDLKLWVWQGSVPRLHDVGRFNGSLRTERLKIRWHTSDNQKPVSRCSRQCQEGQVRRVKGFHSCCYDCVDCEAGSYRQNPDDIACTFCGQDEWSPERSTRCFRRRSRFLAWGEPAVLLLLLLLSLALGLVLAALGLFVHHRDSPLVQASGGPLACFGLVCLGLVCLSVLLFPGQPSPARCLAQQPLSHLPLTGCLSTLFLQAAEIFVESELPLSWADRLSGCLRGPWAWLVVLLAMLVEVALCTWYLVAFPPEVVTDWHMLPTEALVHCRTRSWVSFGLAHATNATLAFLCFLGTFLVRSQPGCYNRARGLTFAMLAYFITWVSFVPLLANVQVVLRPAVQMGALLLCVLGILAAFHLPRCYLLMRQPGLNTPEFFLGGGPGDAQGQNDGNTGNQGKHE
# T1 sequence (Q8TE23 20-839 partner): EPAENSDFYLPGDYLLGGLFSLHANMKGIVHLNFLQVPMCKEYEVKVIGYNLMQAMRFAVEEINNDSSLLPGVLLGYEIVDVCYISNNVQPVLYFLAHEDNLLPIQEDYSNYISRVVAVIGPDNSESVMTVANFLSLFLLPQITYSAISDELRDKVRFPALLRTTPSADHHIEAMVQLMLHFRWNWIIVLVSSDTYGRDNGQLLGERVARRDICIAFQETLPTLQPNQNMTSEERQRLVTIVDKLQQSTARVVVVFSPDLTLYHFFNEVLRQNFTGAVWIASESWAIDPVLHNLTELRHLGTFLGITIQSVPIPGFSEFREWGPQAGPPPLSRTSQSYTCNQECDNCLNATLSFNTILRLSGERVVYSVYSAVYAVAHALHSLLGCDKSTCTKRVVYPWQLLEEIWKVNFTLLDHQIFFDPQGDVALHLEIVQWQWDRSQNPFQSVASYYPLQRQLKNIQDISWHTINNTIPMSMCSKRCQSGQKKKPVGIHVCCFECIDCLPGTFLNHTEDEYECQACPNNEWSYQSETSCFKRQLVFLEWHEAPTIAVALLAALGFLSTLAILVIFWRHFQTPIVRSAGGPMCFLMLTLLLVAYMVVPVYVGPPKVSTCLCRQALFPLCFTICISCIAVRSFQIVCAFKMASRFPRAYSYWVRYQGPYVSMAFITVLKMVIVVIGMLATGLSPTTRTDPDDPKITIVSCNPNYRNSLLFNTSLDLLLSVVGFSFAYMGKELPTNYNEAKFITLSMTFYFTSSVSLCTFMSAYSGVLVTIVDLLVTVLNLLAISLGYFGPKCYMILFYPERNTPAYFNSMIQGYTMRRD
smiles,measurement,setting,value
CC(C)(Oc1ccc(Cl)cc1)C(=O)O [clofibric acid],sperm motility,sperm,no differences; also recorded: not affected
same,T1R3 inhibition compared with PPAR-α activation,human T1R3 receptor,comparable to their activation of PPAR-α

# From patent US20150045610A1, “METHOD OF MODIFYING SPERMATOGENESIS, SPERMIOGENESIS AND/OR FERTILITY IN MAMMALS” (Monell Chemical Senses Center, priority 2012, published 2015)
